Assay [1] concerns the target T1, Phospho-EGFR (Tyr1068) in H1975 C797S cells (CRISPR-edited EGFR C797S) (Homo sapiens, UniProt P00533, C797S/L858R/T790M).
T1 construct: host or cells: H1975 C797S (CRISPR-edited)
Briefly: HTRF pEGFR/total EGFR in H1975 C797S cells. The assay is classed as cell-based. The conditions noted are these: ratio pEGFR/total EGFR, compound 3 hours. The method in brief: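 Adhered H1975 C797S cells got compound for 3 h in duplicate at 0.1% DMSO final, then were lysed 30 min at room temperature. HTRF kits quantified phospho-EGFR (Tyr1068) and total EGFR (665/620 nm); results are pEGFR/total EGFR ratio as percent of 0 μM control.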
(In TR-FRET formats the signal depends on donor and acceptor labels being close together.)

Assay [2] concerns the target T2, Phospho-EGFR (Tyr1068) in H1975 cells (Homo sapiens, UniProt P00533, L858R/T790M).
T2 construct: host or cells: H1975
Briefly: HTRF pEGFR/total EGFR in H1975 cells. In kind it is cell-based. As to conditions: ratio pEGFR/total EGFR, compound 3 hours. A digest of the protocol:
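H1975 cells (EGFR L858R/T790M) treated 3 h with compound in 0.1% DMSO, in duplicate, 24 h after plating. Lysates assayed by HTRF for pEGFR (Tyr1068) and total EGFR at 665/620 nm; values are pEGFR/total EGFR ratio as percent of 0 μM control.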

For assay [3], the target named is CtermHisTag-mEGFR Wild type (Homo sapiens, UniProt P00533). Briefly: biochemical.
Chain of CtermHisTag-mEGFR Wild type (P00533 whole entry): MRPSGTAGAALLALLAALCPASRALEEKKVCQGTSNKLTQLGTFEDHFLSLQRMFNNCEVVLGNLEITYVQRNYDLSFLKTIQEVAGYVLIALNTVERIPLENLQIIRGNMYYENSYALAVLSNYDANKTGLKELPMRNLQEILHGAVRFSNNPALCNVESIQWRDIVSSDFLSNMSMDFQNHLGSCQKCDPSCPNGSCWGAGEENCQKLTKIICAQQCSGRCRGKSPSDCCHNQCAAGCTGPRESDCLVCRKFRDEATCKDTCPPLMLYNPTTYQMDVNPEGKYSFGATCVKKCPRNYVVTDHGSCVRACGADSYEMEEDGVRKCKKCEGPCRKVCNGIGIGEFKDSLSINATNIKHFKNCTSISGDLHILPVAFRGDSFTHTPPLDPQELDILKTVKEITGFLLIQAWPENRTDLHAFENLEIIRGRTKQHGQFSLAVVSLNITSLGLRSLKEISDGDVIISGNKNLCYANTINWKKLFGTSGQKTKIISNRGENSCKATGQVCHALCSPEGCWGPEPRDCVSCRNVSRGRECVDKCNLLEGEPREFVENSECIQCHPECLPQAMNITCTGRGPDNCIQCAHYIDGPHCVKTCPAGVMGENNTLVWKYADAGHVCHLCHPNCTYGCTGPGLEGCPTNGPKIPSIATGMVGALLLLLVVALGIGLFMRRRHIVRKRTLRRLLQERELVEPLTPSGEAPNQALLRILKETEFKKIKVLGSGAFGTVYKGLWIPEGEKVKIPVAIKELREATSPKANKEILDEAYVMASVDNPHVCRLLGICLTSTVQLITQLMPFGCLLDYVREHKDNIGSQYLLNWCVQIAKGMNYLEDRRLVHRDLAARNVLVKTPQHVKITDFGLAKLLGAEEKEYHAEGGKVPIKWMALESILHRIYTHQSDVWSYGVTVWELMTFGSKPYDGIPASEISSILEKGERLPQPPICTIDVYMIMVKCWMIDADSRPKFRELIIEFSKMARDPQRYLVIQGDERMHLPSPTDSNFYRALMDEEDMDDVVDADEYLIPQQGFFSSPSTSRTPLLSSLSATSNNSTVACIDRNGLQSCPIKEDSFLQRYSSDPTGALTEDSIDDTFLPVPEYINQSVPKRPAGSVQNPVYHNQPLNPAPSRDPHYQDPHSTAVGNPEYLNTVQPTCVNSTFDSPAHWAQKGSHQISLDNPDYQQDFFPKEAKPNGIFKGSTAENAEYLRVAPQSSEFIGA
The target of assay [4] is T3, Phospho-EGFR (Tyr1068) in A431 cells (Homo sapiens, UniProt P00533).
T3 construct: endogenous in cells; host or cells: A431
T3 sequence (P00533 25-1210): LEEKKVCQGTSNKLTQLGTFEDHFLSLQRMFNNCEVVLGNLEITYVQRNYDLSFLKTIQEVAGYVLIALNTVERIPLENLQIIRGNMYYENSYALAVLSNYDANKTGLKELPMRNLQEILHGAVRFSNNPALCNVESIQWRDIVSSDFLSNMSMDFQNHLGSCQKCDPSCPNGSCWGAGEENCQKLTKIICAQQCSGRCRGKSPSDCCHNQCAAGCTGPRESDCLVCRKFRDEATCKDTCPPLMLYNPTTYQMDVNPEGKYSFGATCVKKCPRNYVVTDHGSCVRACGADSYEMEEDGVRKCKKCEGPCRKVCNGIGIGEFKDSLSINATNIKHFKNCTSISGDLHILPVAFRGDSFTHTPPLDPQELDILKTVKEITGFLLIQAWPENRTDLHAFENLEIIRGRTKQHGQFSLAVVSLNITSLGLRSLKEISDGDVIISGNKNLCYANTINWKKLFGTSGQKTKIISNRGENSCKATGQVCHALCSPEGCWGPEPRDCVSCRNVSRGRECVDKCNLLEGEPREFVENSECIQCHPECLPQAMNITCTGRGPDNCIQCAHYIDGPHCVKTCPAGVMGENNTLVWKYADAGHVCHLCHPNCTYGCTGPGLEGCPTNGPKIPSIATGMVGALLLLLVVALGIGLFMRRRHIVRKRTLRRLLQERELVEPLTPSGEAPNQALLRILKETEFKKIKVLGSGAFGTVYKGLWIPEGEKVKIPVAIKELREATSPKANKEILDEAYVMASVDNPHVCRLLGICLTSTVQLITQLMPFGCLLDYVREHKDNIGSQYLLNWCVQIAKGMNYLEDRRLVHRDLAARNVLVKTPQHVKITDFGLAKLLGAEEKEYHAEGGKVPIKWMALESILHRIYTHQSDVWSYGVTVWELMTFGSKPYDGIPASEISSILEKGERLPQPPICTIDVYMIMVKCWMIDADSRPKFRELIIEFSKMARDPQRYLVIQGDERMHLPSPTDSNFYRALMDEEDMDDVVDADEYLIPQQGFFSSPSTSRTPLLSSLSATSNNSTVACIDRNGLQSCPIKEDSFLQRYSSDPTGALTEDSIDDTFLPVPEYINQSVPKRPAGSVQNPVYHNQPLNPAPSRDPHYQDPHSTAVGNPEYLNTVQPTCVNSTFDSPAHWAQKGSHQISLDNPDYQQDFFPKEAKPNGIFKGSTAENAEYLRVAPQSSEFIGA
Put plainly: HTRF pEGFR/total EGFR in A431 cells with EGF stimulation. The assay is classed as cell-based. As to conditions: ratio pEGFR/total EGFR, compound 2.5 hours then 100 ng/ml EGF 30 mins. A digest of the protocol: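 A431 cells were plated at 20,000 per well, allowed 24 h to adhere, then given compound for 2.5 h (0.1% DMSO final). They were then stimulated with 100 ng/ml EGF for 30 min and lysed. HTRF measured Tyr1068-phospho and total EGFR at 665/620 nm, with pEGFR/total EGFR expressed as % of the 0 μM control.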

This note sets out measurements from US20260137703A1, “2-AMINO-PYRIDO[2,3-D]PYRIMIDIN-7(8H)-ONE AND 7-AMINO-1-PYRIMIDO[4,5-D]PYRIMIDIN-2(1 H)-ONE DERIVATIVES AS EGFR INHIBITORS FOR THE TREATMENT OF CANCER” (Cancer Research Technology Limited, priority 2022, published 2026).

In general, IC50 refers to the concentration needed to halve the response being measured.

T2 sequence (P00533 25-1210 T790M/L858R): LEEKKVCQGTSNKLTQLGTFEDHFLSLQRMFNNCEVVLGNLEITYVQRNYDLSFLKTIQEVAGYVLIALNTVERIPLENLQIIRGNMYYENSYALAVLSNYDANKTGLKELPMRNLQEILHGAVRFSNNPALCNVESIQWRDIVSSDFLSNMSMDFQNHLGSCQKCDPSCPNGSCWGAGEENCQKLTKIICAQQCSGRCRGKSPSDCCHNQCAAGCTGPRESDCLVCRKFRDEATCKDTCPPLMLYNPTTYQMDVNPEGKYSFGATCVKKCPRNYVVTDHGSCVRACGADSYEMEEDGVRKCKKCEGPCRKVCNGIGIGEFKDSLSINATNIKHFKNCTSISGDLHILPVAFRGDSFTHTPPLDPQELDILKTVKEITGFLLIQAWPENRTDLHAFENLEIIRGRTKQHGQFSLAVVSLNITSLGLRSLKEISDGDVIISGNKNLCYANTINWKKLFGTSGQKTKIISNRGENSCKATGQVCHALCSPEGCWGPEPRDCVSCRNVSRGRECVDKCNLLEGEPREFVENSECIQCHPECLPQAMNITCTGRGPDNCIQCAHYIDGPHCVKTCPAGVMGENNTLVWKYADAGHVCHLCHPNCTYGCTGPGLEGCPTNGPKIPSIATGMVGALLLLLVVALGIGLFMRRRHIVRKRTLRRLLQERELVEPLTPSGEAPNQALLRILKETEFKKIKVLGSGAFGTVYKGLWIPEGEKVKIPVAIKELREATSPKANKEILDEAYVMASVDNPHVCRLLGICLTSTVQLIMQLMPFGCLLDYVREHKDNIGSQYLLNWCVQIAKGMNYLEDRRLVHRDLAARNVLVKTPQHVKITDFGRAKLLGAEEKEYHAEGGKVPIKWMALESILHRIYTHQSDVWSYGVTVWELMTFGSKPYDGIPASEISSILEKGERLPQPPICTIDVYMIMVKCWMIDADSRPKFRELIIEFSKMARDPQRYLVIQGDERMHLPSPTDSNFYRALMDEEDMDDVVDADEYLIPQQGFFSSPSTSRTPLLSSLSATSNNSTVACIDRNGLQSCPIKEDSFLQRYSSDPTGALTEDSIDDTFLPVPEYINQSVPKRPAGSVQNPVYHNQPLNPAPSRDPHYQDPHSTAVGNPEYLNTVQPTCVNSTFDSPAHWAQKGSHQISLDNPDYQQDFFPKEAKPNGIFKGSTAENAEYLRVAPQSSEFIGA
T1 sequence (P00533 25-1210 T790M/C797S/L858R): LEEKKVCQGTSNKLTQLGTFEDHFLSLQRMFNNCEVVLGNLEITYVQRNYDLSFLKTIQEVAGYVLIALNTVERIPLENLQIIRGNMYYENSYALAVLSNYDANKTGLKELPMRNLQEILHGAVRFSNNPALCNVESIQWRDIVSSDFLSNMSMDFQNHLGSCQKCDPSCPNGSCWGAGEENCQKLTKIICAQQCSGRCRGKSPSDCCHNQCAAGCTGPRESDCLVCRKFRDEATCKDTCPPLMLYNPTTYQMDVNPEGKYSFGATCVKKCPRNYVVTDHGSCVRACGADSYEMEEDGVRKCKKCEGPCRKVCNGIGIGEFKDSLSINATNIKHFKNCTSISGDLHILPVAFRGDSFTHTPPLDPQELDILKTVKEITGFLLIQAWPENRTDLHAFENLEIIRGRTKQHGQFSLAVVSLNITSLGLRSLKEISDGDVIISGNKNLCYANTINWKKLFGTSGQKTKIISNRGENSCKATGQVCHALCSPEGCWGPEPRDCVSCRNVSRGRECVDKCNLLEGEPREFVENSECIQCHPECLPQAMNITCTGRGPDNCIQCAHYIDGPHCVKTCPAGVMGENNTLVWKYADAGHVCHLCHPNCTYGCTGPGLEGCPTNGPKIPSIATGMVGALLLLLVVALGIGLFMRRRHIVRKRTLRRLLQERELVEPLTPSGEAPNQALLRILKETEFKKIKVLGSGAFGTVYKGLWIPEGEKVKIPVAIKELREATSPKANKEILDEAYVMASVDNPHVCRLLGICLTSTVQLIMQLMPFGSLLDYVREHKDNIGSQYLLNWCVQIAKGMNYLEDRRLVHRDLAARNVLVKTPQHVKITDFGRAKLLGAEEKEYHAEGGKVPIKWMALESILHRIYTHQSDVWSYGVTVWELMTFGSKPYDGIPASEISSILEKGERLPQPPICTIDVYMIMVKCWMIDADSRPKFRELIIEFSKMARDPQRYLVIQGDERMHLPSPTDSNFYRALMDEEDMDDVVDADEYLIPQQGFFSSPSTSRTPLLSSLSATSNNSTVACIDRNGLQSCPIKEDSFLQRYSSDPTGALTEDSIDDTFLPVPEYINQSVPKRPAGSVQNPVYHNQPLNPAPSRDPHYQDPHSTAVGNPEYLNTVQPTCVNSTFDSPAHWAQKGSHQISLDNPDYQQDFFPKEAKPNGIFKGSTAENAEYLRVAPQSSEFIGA

As to `C#Cc1c(-c2cc(F)ccc2Cl)c(=O)n(C)c2nc(Nc3ccc(N(C)CCN(C)C)cc3)ncc12` [Example 137, 6-(2-chloro-5-fluorophenyl)-2-[(4-{[2-(dimethylamino)ethyl](methyl)amino}phenyl)amino]-5-ethynyl-8-methylpyrido[2,3-d]pyrimidin-7-one], the IC50 in assay [1] was below 500 nM; in assay [2] it was 500 to 1000 nM; in assay [3] it was below 1000 nM; in assay [4] it was 1000 to 3000 nM.
Taken in the same sequence, the figures for `C#Cc1cc(=O)n(C)c2nc(Nc3ccc(N4CCN(C)CC4)c(OC4CCCC4)c3)ncc12` [Example 215, 2-((3-(Cyclopentyloxy)-4-(4-methylpiperazin-1-yl)phenyl)amino)-5-ethynyl-8-methylpyrido[2,3-d]pyrimidin-7(8H)-one] were below 500 nM, below 500 nM, below 1000 nM and 1000 to 3000 nM.
In the case of `C#Cc1cc(=O)n(-c2ccccc2)c2nc(Nc3ccc(N4CCNC5(CC5)C4)cc3)ncc12` [Example 38, 2-[(4-{4,7-Diazaspiro[2.5]octan-7-yl}phenyl)amino]-5-ethynyl-8-phenylpyrido[2,3-d]pyrimidin-7-one], the IC50 in assay [1] is below 500 nM; in assay [2] it was below 500 nM; in assay [3], below 1000 nM; in assay [4], above 3000 nM.
In the case of `C#Cc1cc(=O)n2c3nc(ncc13)Nc1ccc(N3CCN(C)CC3)c(c1)OC/C=C\C2` [Example 188, (Z)-1^5-ethynyl-3^4-(4-methylpiperazin-1-yl)-1^7,1^8-dihydro-4-oxa-2-aza-1(2,8)-pyrido[2,3-d]pyrimidina-3(1,3)-benzenacyclooctaphan-6-en-1^7-one], the concentration for half-maximal inhibition (IC50) was below 500 nM in assay [1], below 500 nM in assay [2], below 1000 nM in assay [3] and 500 to 1000 nM in assay [4].
Regarding `C#Cc1cc(=O)n(-c2ccccc2)c2nc(Nc3ccc(N4CCC(N(C)C)CC4)cc3)ncc12` [Example 33, 2-({4-[4-(Dimethylamino)piperidin-1-yl]phenyl}amino)-5-ethynyl-8-phenylpyrido[2,3-d]pyrimidin-7-one], the half-maximal inhibitory concentration (IC50) in assay [1] was below 500 nM; in assay [2] it was below 500 nM; in assay [3] it was below 1000 nM; in assay [4], 1000 to 3000 nM.
`C#Cc1cc(=O)n(C2CCOCC2)c2nc(Nc3ccc(N4CCN(C)CC4)cc3)ncc12` [Example 69, 5-Ethynyl-2-((4-(4-methylpiperazin-1-yl)phenyl)amino)-8-(tetrahydro-2H-pyran-4-yl)pyrido[2,3-d]pyrimidin-7(8H)-one]: the IC50 in assay [1] was 1000 to 3000 nM; in assay [2] it was below 500 nM; in assay [3], below 1000 nM; in assay [4], above 3000 nM.
`C#Cc1cc(=O)n([C@H]2CC[C@@H](NC(=O)CC)CC2)c2nc(Nc3ccc(N4CCN(C)CC4)cc3)ncc12` [Example 81, N-[(1s,4s)-4-(5-Ethynyl-2-{[4-(4-methylpiperazin-1-yl)phenyl]amino}-7-oxopyrido[2,3-d]pyrimidin-8-yl)cyclohexyl]propanamide]: the 50% inhibitory concentration (IC50) was below 500 nM in assay [1], below 500 nM in assay [2], below 1000 nM in assay [3] and above 3000 nM in assay [4].
Consider `C#Cc1cc(=O)n(C)c2nc(Nc3ccc(N(C)CCN(C)C)c(-c4cnn(C)c4)c3)ncc12` [Example 47, 2-[(4-{[2-(Dimethylamino)ethyl](methyl)amino}-3-(1-methylpyrazol-4-yl)phenyl)amino]-5-ethynyl-8-methylpyrido[2,3-d]pyrimidin-7-one], for which the IC50 in assay [1] was 500 to 1000 nM; in assay [2], below 500 nM; in assay [3] it was below 1000 nM; in assay [4] it was above 3000 nM.
`C#Cc1c(C)c(=O)n(Cc2ncc[nH]2)c2nc(Nc3ccc(N4CCN(C)CC4)cc3)ncc12` [Example 177, 5-Ethynyl-8-(1H-imidazol-2-ylmethyl)-6-methyl-2-{[4-(4-methylpiperazin-1-yl)phenyl]amino}pyrido[2,3-d]pyrimidin-7-one]: the IC50 is above 3000 nM in assay [1], above 3000 nM in assay [2], 1000 to 10000 nM in assay [3] and above 3000 nM in assay [4].
Consider `C#Cc1cc(=O)n(-c2ccccc2)c2nc(Nc3ccc(N4CCN(C)CC4)cc3)ncc12` [Example 37, 5-Ethynyl-2-((4-(4-methylpiperazin-1-yl)phenyl)amino)-8-phenylpyrido[2,3-d]pyrimidin-7(8H)-one], for which the IC50 in assay [1] is 1000 to 3000 nM; in assay [2], below 500 nM; in assay [3], below 1000 nM; in assay [4], 1000 to 3000 nM.
Consider `C#Cc1cc(=O)[nH]c2nc(Nc3ccc(N4CCN(C)CC4)c(CNC(=O)C=C)c3)ncc12` [Example 201], for which the IC50 in assay [1] was 500 to 1000 nM; in assay [2] it was below 500 nM; in assay [3], below 1000 nM; in assay [4], above 3000 nM.
The like results for `C=Cc1c(-c2ccccc2Cl)c(=O)n(C)c2nc(Nc3ccc(N4CCN(C)CC4)cc3OC)ncc12` [Example 170, 6-(2-chlorophenyl)-5-ethenyl-2-{[2-methoxy-4-(4-methylpiperazin-1-yl)phenyl]amino}-8-methylpyrido[2,3-d]pyrimidin-7-one] were, in that order, above 3000 nM, above 3000 nM, above 10000 nM and above 3000 nM.
The like results for `C#Cc1cc(=O)n(C)c2nc(Nc3ccc(OCCN(C)C)cc3)ncc12` [Example 46, 2-({4-[2-(Dimethylamino)ethoxy]phenyl}amino)-5-ethynyl-8-methylpyrido[2,3-d]pyrimidin-7-one] were, in that order, below 500 nM, below 500 nM, 1000 to 10000 nM and above 3000 nM.
On to `C#Cc1cc(=O)n(C2CCOC2)c2nc(Nc3ccc(N4CCN(C)CC4)cc3)ncc12` (stereo not drawn) [Example 105, 5-ethynyl-2-{[4-(4-methylpiperazin-1-yl)phenyl]amino}-8-(oxolan-3-yl)pyrido[2,3-d]pyrimidin-7-one], for which the IC50 in assay [1] was 1000 to 3000 nM; in assay [2], 1000 to 3000 nM; in assay [3], above 10000 nM; in assay [4], above 3000 nM.
Turning to `C#Cc1cc(=O)n(C)c2nc(Nc3ccc(N4CCN(C)CC4)c(OCCc4ccccc4)c3)ncc12` [Example 214, 5-Ethynyl-8-methyl-2-((4-(4-methylpiperazin-1-yl)-3-phenethoxyphenyl)amino)pyrido[2,3-d]pyrimidin-7(8H)-one], the 50% inhibitory concentration (IC50) was below 500 nM in assay [1], below 500 nM in assay [2], below 1000 nM in assay [3] and 1000 to 3000 nM in assay [4].
Regarding `C#Cc1cc(=O)n2c3nc(ncc13)Nc1ccc(N3CCN(C)CC3)c(c1)CC(=O)NCC2` [Example 197, 1^5-Ethynyl-3^4-(4-methylpiperazin-1-yl)-1^7,1^8-dihydro-2,6-diaza-1(2,8)-pyrido[2,3-d]pyrimidina-3(1,3)-benzenacyclooctaphane-1^7,5-dione], the IC50 in assay [1] was 1000 to 3000 nM; in assay [2], 1000 to 3000 nM; in assay [3], above 10000 nM; in assay [4], above 3000 nM.
Take `C#Cc1cc(=O)n(C)c2nc(Nc3ccc(N4CCN(C)CC4)c(NC(=O)CC)c3)ncc12` [Example 51, N-[5-({5-Ethynyl-8-methyl-7-oxopyrido[2,3-d]pyrimidin-2-yl}amino)-2-(4-methylpiperazin-1-yl)phenyl]propanamide]: the IC50 in assay [1] was below 500 nM; in assay [2], below 500 nM; in assay [3] it was below 1000 nM; in assay [4] it was 1000 to 3000 nM.
For the compound `C#Cc1cc(=O)n(-c2ccc(NS(C)(=O)=O)cc2)c2nc(Nc3ccccc3OC)ncc12` [Example 63, N-(4-(5-Ethynyl-2-((2-methoxyphenyl)amino)-7-oxopyrido[2,3-d]pyrimidin-7(8H)-yl)phenyl)methanesulfonamide], the IC50 in assay [1] is above 3000 nM; in assay [2] it was above 3000 nM; in assay [3], below 1000 nM; in assay [4], above 3000 nM.
Consider `C#Cc1cc(=O)n([C@H]2CC[C@@H](NC(=O)CC(=O)O)CC2)c2nc(Nc3ccc(N4CCN(C)CC4)cc3)ncc12` [Example 99, 2-{[(1s,4s)-4-(5-Ethynyl-2-{[4-(4-methylpiperazin-1-yl)phenyl]amino}-7-oxopyrido[2,3-d]pyrimidin-8-yl)cyclohexyl]carbamoyl}acetic acid], for which the IC50 in assay [1] was above 3000 nM; in assay [2], 1000 to 3000 nM; in assay [3], below 1000 nM; in assay [4], above 3000 nM.
As to `C#Cc1cc(=O)n2c3nc(ncc13)Nc1ccc(N3CCN(C)CC3)c(c1)OCCCCC2` [Example 200, 1^5-Ethynyl-34-(4-methylpiperazin-1-yl)-1^7,1^8-dihydro-4-oxa-2-aza-1(2,8)-pyrido[2,3-d]pyrimidina-3(1,3)-benzenacyclononaphan-17-one], the half-maximal inhibitory concentration (IC50) in assay [1] was below 500 nM; in assay [2], below 500 nM; in assay [3], below 1000 nM; in assay [4] it was below 500 nM.
With `C#Cc1cc(=O)n(-c2ccccc2)c2nc(Nc3ccc(N4CCC(N5CC(CO)C5)CC4)cc3)ncc12` [Example 28], the IC50 in assay [1] is below 500 nM; in assay [2], below 500 nM; in assay [3], below 1000 nM; in assay [4], 1000 to 3000 nM.
